Reference: US20200262864A1, “DEUTERATED FORMS OF AMINOSTEROLS AND METHODS OF USING THE SAME” (Enterin, Inc., priority 2019, published 2020)

How the values were obtained:
[1] = target: T1, Protein Tyrosine Phosphatase 1B (PTP1B), human truncated form (1-321) (Homo sapiens, UniProt P18031); assay: Inhibition of PTP1B, 10-dose IC50 mode, fluorescence readout of enzyme activity; type: biochemical; settings: for HILLSLOPE: 10-dose curve
T1 construct: The enzyme was the human truncated form (1-321), recombinantly produced in E. coli; host or cells: E. coli
T1 sequence (P18031 1-321): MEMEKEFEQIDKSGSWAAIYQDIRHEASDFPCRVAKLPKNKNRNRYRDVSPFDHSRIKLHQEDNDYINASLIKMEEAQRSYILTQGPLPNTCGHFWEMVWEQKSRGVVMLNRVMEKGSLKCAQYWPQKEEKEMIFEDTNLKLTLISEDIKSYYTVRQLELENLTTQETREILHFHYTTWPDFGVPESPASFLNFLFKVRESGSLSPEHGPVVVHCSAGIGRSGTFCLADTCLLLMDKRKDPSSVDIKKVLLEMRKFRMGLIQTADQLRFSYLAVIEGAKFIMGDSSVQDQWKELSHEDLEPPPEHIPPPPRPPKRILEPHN
Experimental: The enzyme was the human truncated form (1-321), recombinantly produced in E. coli. Fluorescence was measured to monitor enzyme activity.

[2] = Pharmacological activity in mice as weight loss agent; type: in vivo
Source text: Food was provided ad lib.

[3] = Phase 2 trial of oral squalamine (ENT-01): pharmacokinetics; type: in vivo, human; settings: patients of Example 8
Experimental: PK data were collected on the 10 patients enrolled in Stage 1 and 10 patients enrolled in Stage 2 to determine the extent of systemic absorption. In Stage 1, PK data were obtained at each visit, pre-medication, at 1, 2, 4, 8 and 24 hours (Table 9). In Stage 2, PK was measured on days 1 and 6 of the randomization period pre-medication, at 1, 2, 4 and 8 hours (Table 10).
The mean Cmax, Tmax and T1/2 and AUC of the squalamine ion following squalamine (ENT-01) oral dosing for Stage 1 patients. The PK analyses are only approximate, as the lower limit of the validated concentration range was 10 ng/ml; most of the measured concentrations fell below that value. The mean Cmax, Tmax and T1/2 and AUC of the squalamine ion following squalamine (ENT-01) oral dosing for Stage 2 patients. The PK analyses are only approximate, as the lower limit of the validated concentration range was 0.5 ng/ml.

[4] = as the dilactate salt; cited from earlier work
[5] = single and repeat intravenous administration, dilactate salt, alone or in combination; cited from earlier work
[6] = tested on: C. elegans model of PD; settings: cited from earlier work
[7] = tested on: mouse models of PD; settings: several mouse models of PD; cited from earlier work
[8] = i.p. 10 mg/kg on days 0, 2, 4, 6, 8 and 10, N=3

SMILES: [2H]C([2H])([2H])C([2H])(C(CC[C@@H](C)[C@H]1CCC2C3C(CC[C@@]21C)[C@@]1(C)CC[C@H](NCCCNCCCCNCCCN)C[C@@H]1C[C@H]3O)OS(=O)(=O)O)C([2H])([2H])[2H] (some centres unmarked) [Compound D7-1436]
- HILLSLOPE [1]: −2.50
- % Activity ([1]; Conc 1.00E−04 M): −0.37%
- Slope (signal/min) ([1]; Conc 1.00E−04 M): −161 signal/min
- % Activity ([1]; Conc 1.11E−05 M): −0.74%
- Slope (signal/min) ([1]; Conc 1.11E−05 M): −319 signal/min
- % Activity ([1]; Conc 1.23E−06 M): 80.63%
- Slope (signal/min) ([1]; Conc 1.23E−06 M): 34760 signal/min
- % Activity ([1]; Conc 1.37E−07 M): 93.14%
- Slope (signal/min) ([1]; Conc 1.37E−07 M): 40150 signal/min
- % Activity ([1]; Conc 1.52E−08 M): 101.65%
- Slope (signal/min) ([1]; Conc 1.52E−08 M): 43819 signal/min
- % Activity ([1]; Conc 3.33E−05 M): −0.84%
- Slope (signal/min) ([1]; Conc 3.33E−05 M): −362 signal/min
- % Activity ([1]; Conc 3.70E−06 M): 19.55%
- Slope (signal/min) ([1]; Conc 3.70E−06 M): 8429 signal/min
- % Activity ([1]; Conc 4.12E−07 M): 96.86%
- Slope (signal/min) ([1]; Conc 4.12E−07 M): 41755 signal/min
- % Activity ([1]; Conc 4.57E−08 M): 101.36%
- Slope (signal/min) ([1]; Conc 4.57E−08 M): 43697 signal/min
- % Activity ([1]; Conc 5.08E−09 M): 103.59%
- Slope (signal/min) ([1]; Conc 5.08E−09 M): 44655 signal/min
- body weight reached ([2]; i.p. 10 mg/kg on days 0, 2, 4, 6, 8 and 10, by day 16, N=3): about 45 % of the starting weight
- condition of the animals ([2]; i.p. 10 mg/kg on days 0, 2, 4, 6, 8 and 10, day 16): appeared moribund and were euthanized
- potency as compared with MSI-1436 ([2]; weight loss, i.p. 10 mg/kg): increased potency

SMILES: CC(C)[C@@H](CC[C@@H](C)C1CCC2C3C(CC[C@@]21C)[C@@]1(C)CC[C@H](NCCCNCCCCN)C[C@@H]1C[C@H]3O)OS(=O)(=O)O (stereo partly drawn) [squalamine, 3 beta-N-1-(N-[3-(4-aminobutyl)]-1,3-diaminopropane)-7 alpha,24 zeta-dihydroxy-5 alpha-cholestane 24-sulfate]
- systemic absorption following oral administration [3]: not significantly absorbed
- water solubility [4]: highly water soluble
- well tolerated dose [5]: at least 300 mg/m^2
- muscle paralysis [6]: complete reversal
- gastrointestinal dysmotility [7]: reverse gastrointestinal dysmotility

SMILES: CC(C)[C@@H](CC[C@@H](C)C1CCC2C3C(CC[C@@]21C)[C@@]1(C)CC[C@H](NCCCNCCCCNCCCN)C[C@@H]1C[C@H]3O)OS(=O)(=O)O (some centres unmarked) [MSI-1436, reference compound]
- HILLSLOPE [1]: −2.19
- % Activity ([1]; Conc 1.00E−04 M): −0.16%
- Slope (signal/min) ([1]; Conc 1.00E−04 M): −68 signal/min
- % Activity ([1]; Conc 1.11E−05 M): 0.68%
- Slope (signal/min) ([1]; Conc 1.11E−05 M): 292 signal/min
- Slope (signal/min) ([1]; Conc 1.23E−06 M): 37260 signal/min
- Slope (signal/min) ([1]; Conc 1.37E−07 M): 40137 signal/min
- Slope (signal/min) ([1]; Conc 1.52E−08 M): 44021 signal/min
- Slope (signal/min) ([1]; Conc 3.33E−05 M): −440 signal/min
- Slope (signal/min) ([1]; Conc 3.70E−06 M): 16431 signal/min
- Slope (signal/min) ([1]; Conc 4.12E−07 M): 39959 signal/min
- Slope (signal/min) ([1]; Conc 4.57E−08 M): 42717 signal/min
- Slope (signal/min) ([1]; Conc 5.08E−09 M): 43513 signal/min
- nadir in weight [2, 8]: ~16 days
- recovery to starting weight [2, 8]: 45 days
